Measurements taken from patent US20240376097A1, “BCL-2 Inhibitor” (BeiGene Ltd., priority 2020, published 2024).

Tests used:
[1] = biological target: Recombinant human Bcl-2 protein (Homo sapiens (Human), UniProt P10415); assay: Bcl-2 TR-FRET Assay; type: binding; details: Bcl-2 wild type, TR-FRET; read-out: Biochemical assay (IC50, nM) Bcl-2 WT
Summary of the method: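 0.05 nM recombinant Bcl-2 preincubated 0.5 h at room temperature with 10-point compound dilutions (top final 1, 0.1, 0.02 or 0.01 uM) in pH 7.5 phosphate buffer. FITC-Bak peptide (0.5 nM) and anti-6His Tb cryptate then added for 1 h. TR-FRET read; IC50 from four-parameter logistic fit.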

[2] = test system: BCL-2 G101V knock-in cell line H96 (derive from RS4;11); assay: Bcl 2-G101V Knock-In RS4;11 Cell Proliferation Assay; type: cell-based; details: Homo sapiens, RS4;11 Bcl-2 G101V knock-in clone H96, 48 hrs, CellTiter-GLO, read-out: Cellular proliferation assay (IC50, nM) RS4
Summary of the method: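 H96, a CRISPR-generated RS4;11 clone carrying BCL2-G101V knock-in (WES/RNA-seq validated), seeded 50,000 per well and exposed 48 h at 37 °C to 10-point dilutions topping at 1 or 10 μM. Viability by CellTiter-Glo luminescence; mean IC50.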

[3] = test system: recombinant human Bcl-2-G101V protein; assay: Bcl-2-G101V TR-FRET Assay; type: binding; details: ratio of biochemical IC50 Bcl-2 G101V / Bcl-2 WT
Summary of the method: (§1)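 Compounds were titrated at increasing concentrations against the Bcl-2-G101V–ligand interaction. TR-FRET signals were then read (ex 337 nm; em 490/520 nm). Percent inhibition was derived from the 490-to-520 nm ratio, and IC50 from a four-parameter logistic equation.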

[4] = biological target: recombinant human Bcl-2-G101V protein (Homo sapiens (Human), UniProt P10415, G101V); assay: Bcl-2-G101V TR-FRET Assay; type: binding; details: Bcl-2 G101V mutant, TR-FRET; read-out: Biochemical assay (IC50, nM) Bcl-2 G101V
Summary of the method: as §1

[5] = test system: RS4;11 (BCL-2 dependent acute lymphoblastic leukemia cell line); assay: RS4;11 Cell Proliferation Assay; type: cell-based; details: Homo sapiens, RS4-11, RS4;11 cells, read-out: Cellular proliferation assay (IC50, nM) RS4
Summary of the method: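 RS4;11 cells, 50,000 per well in RPMI-1640 with 10% FBS, treated 48 h at 37 °C with a 10-point dilution series topping at 1 μM. Viability read by CellTiter-Glo ATP luminescence; mean IC50 reported.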

| Compound | IC50 [1] | IC50 [2] | Ratio of Bcl-2 G101V/WT [3] | IC50 [4] | IC50 [5] |
| --- | --- | --- | --- | --- | --- |
| CC(C)c1ccccc1C1CN(Cc2ccc(C3CC3)cc2)CCN1C1CC2(CCN(c3ccc(C(=O)NS(=O)(=O)c4ccc(NC[C@H]5CC[C@](C)(O)CC5)c([N+](=O)[O-])c4)c(Oc4cnc5[nH]cc(F)c5c4)c3)CC2)C1 (stereo partly shown) [Example 160, 4-(2-(4-(4-cyclopropylbenzyl)-2-(2-isopropylphenyl)piperazin-1-yl)-7-azaspiro[3.5]nonan-7-yl)-2-((3-fluoro-1H-pyrrolo[2,3-b]pyridin-5-yl)oxy)-N-((4-((((1r,4r)-4-hydroxy-4-methylcyclohexyl)methyl)amino)-3-nitrophenyl)sulfonyl) benzamide] | 1.2 nM | 2.87 nM | 5 | 6 nM | 0.564 nM |
| COc1cc(CN2CCN(C3CC4(C3)CN(c3ccc(C(=O)NS(=O)(=O)c5ccc(NC[C@H]6CC[C@](C)(O)CC6)c([N+](=O)[O-])c5)c(Oc5cnc6[nH]cc(F)c6c5)c3)C4)[C@H](c3ccccc3C(C)C)C2)ccc1Cl [Example 325, 4-(6-((R)-4-(4-chloro-3-methoxybenzyl)-2-(2-isopropylphenyl)piperazin-1-yl)-2-azaspiro[3.3]heptan-2-yl)-2-((3-fluoro-1H-pyrrolo[2,3-b]pyridin-5-yl)oxy)-N-((4-((((1r,4r)-4-hydroxy-4-methylcyclohexyl)methyl)amino)-3-nitrophenyl)sulfonyl) benzamide] | 0.49 nM | 0.53 nM | 2 | 0.97 nM | 0.21 nM |
| COc1ccc(CN2CCN(C3CC4(CCN(c5ccc(C(=O)NS(=O)(=O)c6ccc(NC[C@H]7CC[C@](C)(O)CC7)c([N+](=O)[O-])c6)c(Oc6cnc7[nH]ccc7c6)c5)CC4)C3)C(c3ccccc3C(C)C)C2)cc1Br (stereo partly shown) [Example 143, 2-((1H-pyrrolo[2,3-b]pyridin-5-yl)oxy)-4-(2-(4-(3-bromo-4-methoxybenzyl)-2-(2-isopropylphenyl)piperazin-1-yl)-7-azaspiro[3.5]nonan-7-yl)-N-((4-((((1r,4r)-4-hydroxy-4-methylcyclohexyl)methyl)amino)-3-nitrophenyl)sulfonyl)benzamide] | 0.48 nM | 5.15 nM | 5.5 | 2.6 nM | 0.674 nM |
| COc1cc(CN2CCN(C3CC4(C3)CN(c3ccc(C(=O)NS(=O)(=O)c5ccc(NC[C@H]6CC[C@](C)(O)CC6)c([N+](=O)[O-])c5)c(Oc5cnc6[nH]ccc6c5)c3)C4)[C@H](c3ccccc3C(C)C)C2)ccc1C1CCC1 [Example 342, 2-((1H-pyrrolo[2,5-b]pyridin-5-yl)oxy)-4-(6-((R)-4-(4-cyclobutyl-3-methoxybenzyl)-2-(2-isopropylphenyl)piperazin-1-yl)-2-azaspiro[3.3]heptan-2-yl)-N-((4-((((1r,4r)-4-hydroxy-4-methylcyclohexyl)methyl)amino)-3-nitrophenyl)sulfonyl)benzamide] | 0.97 nM | 2 nM | 2.9 | 3.3 nM | 0.28 nM |
| CC(C)c1ccccc1[C@H]1CN(Cc2cccc3c2OCCO3)CCN1C1CC2(C1)CN(c1ccc(C(=O)NS(=O)(=O)c3ccc(NC[C@H]4CC[C@](C)(O)CC4)c([N+](=O)[O-])c3)c(Oc3cnc4[nH]ccc4c3)c1)C2 [Example 149b, 2-((1H-pyrrolo[2,3-b]pyridin-5-yl)oxy)-4-(6-((S)-4-((2,3-dihydrobenzo[b][1,4]dioxin-5-yl)methyl)-2-(2-isopropylphenyl)piperazin-1-yl)-2-azaspiro[3.3]heptan-2-yl)-N-((4-((((1r,4r)-4-hydroxy-4-methylcyclohexyl)methyl)amino)-3-nitrophenyl)sulfonyl)benzamide] | 0.7 nM | 20.4 nM | 12 | 8.4 nM | 5.8 nM |
| [2H]C([2H])([2H])Oc1ccc(CN2CCN(C3CC4(CCN(c5ccc(C(=O)NS(=O)(=O)c6ccc(NC[C@H]7CC[C@](C)(O)CC7)c([N+](=O)[O-])c6)c(Oc6cnc7[nH]ccc7c6)c5)CC4)C3)C(c3ccccc3C(C)C)C2)cc1OC([2H])([2H])[2H] (stereo partly shown) [Example 175, 2-((1H-pyrrolo[2,3-b]pyridin-5-yl)oxy)-4-(2-(4-(3,4-bis(methoxy-d3)benzyl)-2-(2-isopropylphenyl)piperazin-1-yl)-7-azaspiro[3.5]nonan-7-yl)-N-((4-((((1r,4r)-4-hydroxy-4-methylcyclohexyl)methyl)amino)-3-nitrophenyl)sulfonyl)benzamide] | 0.041 nM | 1 nM | 7.0 | 0.29 nM | 0.33 nM |
| CCc1cc(CN2CCN(C3CC4(CCN(c5ccc(C(=O)NS(=O)(=O)c6ccc(NC[C@H]7CC[C@](C)(O)CC7)c([N+](=O)[O-])c6)c(Oc6cnc7[nH]ccc7c6)c5)CC4)C3)C(c3ccccc3C(C)C)C2)ccc1OC (stereo partly shown) [Example 116, 2-((1H-pyrrolo[2,3-b]pyridin-5-yl)oxy)-4-(2-(4-(3-ethyl-4-methoxybenzyl)-2-(2-isopropylphenyl)piperazin-1-yl)-7-azaspiro[3.5]nonan-7-yl)-N-((4-((((1r,4r)-4-hydroxy-4-methylcyclohexyl)methyl)amino)-3-nitrophenyl)sulfonyl)benzamide] | 0.42 nM | 4.76 nM | 4.7 | 2 nM | 0.58 nM |
| COc1cc(CN2CCN(C3CC4(C3)CN(c3ccc(C(=O)NS(=O)(=O)c5ccc(NC[C@H]6CC[C@](C)(O)CC6)c([N+](=O)[O-])c5)c(Oc5cnc6[nH]ccc6c5)c3)C4)[C@H](c3ccccc3C(C)C)C2)cc(F)c1OC [Example 245, 2-((1H-pyrrolo[2,3-b]pyridin-5-yl)oxy)-4-(6-((R)-4-(3-fluoro-4,5-dimethoxybenzyl)-2-(2-isopropylphenyl)piperazin-1-yl)-2-azaspiro[3.3]heptan-2-yl)-N-((4-((((1r,4r)-4-hydroxy-4-methylcyclohexyl)methyl)amino)-3-nitrophenyl)sulfonyl)benzamide] | 0.13 nM | 0.53 nM | 2.5 | 0.32 nM | 0.15 nM |
| COc1ccc(CN2CCN(C3CC4(CCN(c5ccc(C(=O)NS(=O)(=O)c6ccc(NC[C@H]7CC[C@](C)(O)CC7)c([N+](=O)[O-])c6)c(Oc6cnc7[nH]ccc7c6)c5)CC4)C3)C(c3ccccc3C(C)C)C2)cc1C(C)=O (stereo partly shown) [Example 212, 2-((1H-pyrrolo[2,3-b]pyridin-5-yl)oxy)-4-(2-(4-(3-acetyl-4-methoxybenzyl)-2-(2-isopropylphenyl)piperazin-1-yl)-7-azaspiro[3.5]nonan-7-yl)-N-((4-((((1r,4r)-4-hydroxy-4-methylcyclohexyl)methyl)amino)-3-nitrophenyl)sulfonyl)benzamide] | 0.13 nM | 2.15 nM | 4.2 | 0.54 nM | 0.3 nM |
| COc1ccc(CN2CCN(C3CC4(C3)CN(c3ccc(C(=O)NS(=O)(=O)c5ccc(NCC6CCOCC6)c([N+](=O)[O-])c5)c(Oc5cnc6[nH]cc(F)c6c5)c3)C4)[C@H](c3ccccc3C(C)C)C2)cc1 [Example 183, (R)-2-((3-fluoro-1H-pyrrolo[2,3-b]pyridin-5-yl)oxy)-4-(6-(2-(2-isopropylphenyl)-4-(4-methoxybenzyl)piperazin-1-yl)-2-azaspiro[3.3]heptan-2-yl)-N-((3-nitro-4-(((tetrahydro-2H-pyran-4-yl)methyl)amino)phenyl)sulfonyl) benzamide] | 0.096 nM | 0.52 nM | 1.8 | 0.18 nM | 0.1 nM |
| C#Cc1cc(CN2CCN(C3CC4(CCN(c5ccc(C(=O)NS(=O)(=O)c6ccc(NC[C@H]7CC[C@](C)(O)CC7)c([N+](=O)[O-])c6)c(Oc6cnc7[nH]ccc7c6)c5)CC4)C3)C(c3ccccc3C(C)C)C2)ccc1OC (stereo partly shown) [Example 151, 2-((1H-pyrrolo[2,3-b]pyridin-5-yl)oxy)-4-(2-(4-(3-ethynyl-4-methoxybenzyl)-2-(2-isopropylphenyl)piperazin-1-yl)-7-azaspiro[3.5]nonan-7-yl)-N-((4-((((1r,4r)-4-hydroxy-4-methylcyclohexyl)methyl)amino)-3-nitrophenyl)sulfonyl)benzamide] | 0.43 nM | 3.86 nM | 4.9 | 2.1 nM | 0.53 nM |
